Measurements: ChEMBL document CHEMBL1136375, “Design and synthesis of spiro-cyclopentenyl and spiro-[1,3]-dithiolanyl substituted pyrrolidine-5,5-trans-lactams as inhibitors of hepatitis C virus NS3/4A protease” (Bioorg Med Chem Lett, 2003)

Tests used:
[1] = tested on: Hepatitis C virus; experiment: Inhibitory activity against hepatitis C virus protease enzyme(HCV) NS3/4A; assay type: functional, Hepacivirus hominis
[2] = In vitro stability behavior at 4 hr; assay type: physicochemical; details: read-out: Turnover
[3] = tested on: Hepatitis C virus; experiment: Inhibitory activity against hepatitis C virus protease enzyme(HCV) by using ELISA replicon assay; assay type: functional, organism-based, Hepacivirus hominis

Compound	degraded at 4 h [2] [%]	IC50 [3] [µM]	k obs / 1 [1] [M⁻¹ s⁻¹]
CCN(CC)C(=O)N1C(=O)C2(CCC2)[C@@H]2[C@@H]1CCN2C(=O)[C@@H](NC(=O)OC(C)(C)C)C(C)C			3.3
CC(C)[C@H](NC(=O)OC(C)(C)C)C(=O)N1CC[C@H]2[C@H]1C1(CCC1)C(=O)N2C(=O)C1CC1	27	4	400
CSC(=O)N1C(=O)C2(CCC2)[C@@H]2[C@@H]1CCN2C(=O)[C@@H](NC(=O)OC(C)(C)C)C(C)C		7.9	154
C=C(C)C(=O)N1C(=O)C2(CCC2)[C@@H]2[C@@H]1CCN2C(=O)[C@@H](NC(=O)OC(C)(C)C)C(C)C			24
CC(C)C(NC(=O)OC(C)(C)C)C(=O)N1CC[C@H]2[C@H]1C1(CC=CC1)C(=O)N2C(=O)C1CC1 (relative stereo)			19
CC(C)C(NC(=O)OC(C)(C)C)C(=O)N1CC[C@H]2[C@H]1C1(SCCS1)C(=O)N2C(=O)C1CC1 (relative stereo)	> 50	> 100	621

More lines, main results first:

degraded at 4 h [2] [%]	IC50 [3] [µM]	Compound	k obs / 1 [1] [M⁻¹ s⁻¹]
> 50	17	CC(C)C(=O)N1C(=O)C2(SCCS2)[C@@H]2[C@@H]1CCN2C(=O)C(NC(=O)OC(C)(C)C)C(C)C (some centres not stated)	362
5	3.1	CC(C)C(=O)N1C(=O)C2(CCC2)[C@@H]2[C@@H]1CCN2C(=O)[C@@H](NC(=O)OC(C)(C)C)C(C)C (relative stereo)	166
